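Cultured in 96-well plates, cells were exposed to test compound for 48 hours across five concentrations. TGI denotes the concentration required for complete inhibition of growth.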
Assays:
Test in all cases: inhibition of tumour cell growth, NCI panel, 48 h
UACC-257 melanoma = system: UACC-257 melanoma
SF-268 CNS = system: SF-268 CNS
DU-145 prostate = system: DU-145 prostate
NCI-H226 lung = system: NCI-H226 lung
U251 CNS = system: U251 CNS
SW-620 colon = system: SW-620 colon
786-0 renal = system: 786-0 renal
MDA-MB-231 breast = system: MDA-MB-231 breast
SK-MEL-5 melanoma = system: SK-MEL-5 melanoma
ACHN renal = system: ACHN renal
OVCAR-5 ovarian = system: OVCAR-5 ovarian
NCI/ADR-RES ovarian = system: NCI/ADR-RES ovarian
IGROV1 ovarian = system: IGROV1 ovarian
T-47D breast = system: T-47D breast
EKVX NSCLC = system: EKVX NSCLC
SF-295 CNS = system: SF-295 CNS
CAKI-1 renal = system: CAKI-1 renal
COLO 205 colon = system: COLO 205 colon
LOX IMVI melanoma = system: LOX IMVI melanoma
SK-MEL-28 melanoma = system: SK-MEL-28 melanoma
CCRF-CEM leukemia = system: CCRF-CEM leukemia
HCT-116 colon = system: HCT-116 colon
UACC-62 melanoma = system: UACC-62 melanoma
SK-MEL-2 melanoma = system: SK-MEL-2 melanoma
MALME-3M melanoma = system: MALME-3M melanoma
HCT-15 colon = system: HCT-15 colon
BT-549 breast = system: BT-549 breast
NCI-H23 lung = system: NCI-H23 lung
SF-539 CNS = system: SF-539 CNS
SNB-75 CNS = system: SNB-75 CNS
SN12C renal = system: SN12C renal
MCF7 breast = system: MCF7 breast
MDA-MB-435 = system: MDA-MB-435
HOP-92 NSCLC = system: HOP-92 NSCLC
PC-3 prostate = system: PC-3 prostate
HCC-2998 colon = system: HCC-2998 colon
UO-31 renal = system: UO-31 renal
A498 renal = system: A498 renal
OVCAR-4 ovarian = system: OVCAR-4 ovarian
TK-10 renal = system: TK-10 renal
KM12 colon = system: KM12 colon
NCI-H522 lung = system: NCI-H522 lung
SNB-19 CNS = system: SNB-19 CNS
A549 NSCLC = system: A549 NSCLC
NCI-H460 lung = system: NCI-H460 lung
HS 578T breast = system: HS 578T breast
SR leukemia = system: SR leukemia
K-562 leukemia = system: K-562 leukemia
OVCAR-8 ovarian = system: OVCAR-8 ovarian
HT29 colon = system: HT29 colon
SK-OV-3 ovarian = system: SK-OV-3 ovarian
M14 melanoma = system: M14 melanoma
HL-60(TB) leukemia = system: HL-60(TB) leukemia
MDA-N = system: MDA-N
RPMI-8226 leukemia = system: RPMI-8226 leukemia
MOLT-4 leukemia = system: MOLT-4 leukemia
RXF 393 renal = system: RXF 393 renal
OVCAR-3 ovarian = system: OVCAR-3 ovarian
HOP-62 NSCLC = system: HOP-62 NSCLC

With `CCN1CC2(COC)C(O)CC(OC)C34C5CC6(O)C(OC)C=C(C5C6OC(=O)c5ccc(OC)c(OC)c5)C(C(OC)C23)C14` (stereo unspecified) the TGI (UACC-257 melanoma) was greater than 7.5 µM, the TGI (SF-268 CNS) was greater than 7.5 µM and the TGI (DU-145 prostate) was greater than 7.5 µM. The TGI (NCI-H226 lung) was greater than 7.5 µM, the TGI (U251 CNS) was greater than 7.5 µM and the TGI (SW-620 colon) was greater than 7.5 µM. It also gave a TGI (786-0 renal) greater than 7.5 µM, a TGI (MDA-MB-231 breast) greater than 7.5 µM and a TGI (SK-MEL-5 melanoma) greater than 7.5 µM. The TGI (ACHN renal) was greater than 7.5 µM, the TGI (OVCAR-5 ovarian) was greater than 7.5 µM and the TGI (NCI/ADR-RES ovarian) was greater than 7.5 µM. The TGI (IGROV1 ovarian) was greater than 7.5 µM, the TGI (T-47D breast) was greater than 7.5 µM and the TGI (EKVX NSCLC) was greater than 7.5 µM. For the same compound, the TGI (SF-295 CNS) was greater than 7.5 µM, the TGI (CAKI-1 renal) was greater than 7.5 µM and the TGI (COLO 205 colon) was greater than 7.5 µM. The TGI (LOX IMVI melanoma) was greater than 7.5 µM, the TGI (SK-MEL-28 melanoma) was greater than 7.5 µM and the TGI (CCRF-CEM leukemia) was greater than 7.5 µM. For the same compound, the TGI (HCT-116 colon) was greater than 7.5 µM, the TGI (UACC-62 melanoma) was greater than 7.5 µM and the TGI (SK-MEL-2 melanoma) was greater than 7.5 µM. For the same compound, the TGI (MALME-3M melanoma) was greater than 7.5 µM, the TGI (HCT-15 colon) was greater than 7.5 µM and the TGI (BT-549 breast) was greater than 7.5 µM. It also gave a TGI (NCI-H23 lung) greater than 7.5 µM, a TGI (SF-539 CNS) greater than 7.5 µM and a TGI (SNB-75 CNS) greater than 7.5 µM. It also gave a TGI (SN12C renal) greater than 7.5 µM, a TGI (MCF7 breast) greater than 7.5 µM and a TGI (MDA-MB-435) greater than 7.5 µM. The TGI (HOP-92 NSCLC) was greater than 7.5 µM, the TGI (PC-3 prostate) was greater than 7.5 µM and the TGI (HCC-2998 colon) was greater than 7.5 µM. For the same compound, the TGI (UO-31 renal) was greater than 7.5 µM, the TGI (A498 renal) was greater than 7.5 µM and the TGI (OVCAR-4 ovarian) was greater than 7.5 µM. For the same compound, the TGI (TK-10 renal) was greater than 7.5 µM, the TGI (KM12 colon) was greater than 7.5 µM and the TGI (NCI-H522 lung) was greater than 7.5 µM. The TGI (SNB-19 CNS) was greater than 7.5 µM, the TGI (A549 NSCLC) was greater than 7.5 µM and the TGI (NCI-H460 lung) was greater than 7.5 µM. The TGI (HS 578T breast) was greater than 7.5 µM, the TGI (SR leukemia) was greater than 7.5 µM and the TGI (K-562 leukemia) was greater than 7.5 µM. It also gave a TGI (OVCAR-8 ovarian) greater than 7.5 µM, a TGI (HT29 colon) greater than 7.5 µM and a TGI (SK-OV-3 ovarian) greater than 7.5 µM. It also gave a TGI (M14 melanoma) greater than 7.5 µM, a TGI (HL-60(TB) leukemia) greater than 7.5 µM and a TGI (MDA-N) greater than 7.5 µM.

In the case of `Cn1c(=O)n2c(=O)n(C)c(=O)n2c1=O`, the TGI (UACC-257 melanoma) was greater than 100 µM, the TGI (SF-268 CNS) was greater than 100 µM and the TGI (RPMI-8226 leukemia) was greater than 100 µM. For the same compound, the TGI (DU-145 prostate) was greater than 100 µM, the TGI (NCI-H226 lung) was greater than 100 µM and the TGI (U251 CNS) was greater than 100 µM. For the same compound, the TGI (SW-620 colon) was greater than 100 µM, the TGI (786-0 renal) was greater than 100 µM and the TGI (MDA-MB-231 breast) was greater than 100 µM. For the same compound, the TGI (SK-MEL-5 melanoma) was greater than 100 µM, the TGI (OVCAR-5 ovarian) was greater than 100 µM and the TGI (MOLT-4 leukemia) was greater than 100 µM. For the same compound, the TGI (NCI/ADR-RES ovarian) was greater than 100 µM, the TGI (IGROV1 ovarian) was greater than 100 µM and the TGI (T-47D breast) was greater than 100 µM. For the same compound, the TGI (EKVX NSCLC) was greater than 100 µM, the TGI (CAKI-1 renal) was greater than 100 µM and the TGI (COLO 205 colon) was greater than 100 µM. The TGI (LOX IMVI melanoma) was greater than 100 µM, the TGI (SK-MEL-28 melanoma) was greater than 100 µM and the TGI (CCRF-CEM leukemia) was greater than 100 µM. For the same compound, the TGI (HCT-116 colon) was greater than 100 µM, the TGI (UACC-62 melanoma) was greater than 100 µM and the TGI (SK-MEL-2 melanoma) was greater than 100 µM. It also gave a TGI (MALME-3M melanoma) greater than 100 µM, a TGI (HCT-15 colon) greater than 100 µM and a TGI (BT-549 breast) greater than 100 µM. For the same compound, the TGI (NCI-H23 lung) was greater than 100 µM, the TGI (SF-539 CNS) was greater than 100 µM and the TGI (RXF 393 renal) was greater than 100 µM. It also gave a TGI (SNB-75 CNS) greater than 100 µM, a TGI (SN12C renal) greater than 100 µM and a TGI (MCF7 breast) greater than 100 µM. The TGI (MDA-MB-435) was greater than 100 µM, the TGI (PC-3 prostate) was greater than 100 µM and the TGI (OVCAR-3 ovarian) was greater than 100 µM. The TGI (HCC-2998 colon) was greater than 100 µM, the TGI (UO-31 renal) was greater than 100 µM and the TGI (A498 renal) was greater than 100 µM. It also gave a TGI (OVCAR-4 ovarian) greater than 100 µM, a TGI (TK-10 renal) greater than 100 µM and a TGI (KM12 colon) greater than 100 µM. The TGI (NCI-H522 lung) was greater than 100 µM, the TGI (SNB-19 CNS) was greater than 100 µM and the TGI (A549 NSCLC) was greater than 100 µM. It also gave a TGI (NCI-H460 lung) greater than 100 µM, a TGI (HS 578T breast) greater than 100 µM and a TGI (SR leukemia) greater than 100 µM. The TGI (K-562 leukemia) was greater than 100 µM, the TGI (OVCAR-8 ovarian) was greater than 100 µM and the TGI (HT29 colon) was greater than 100 µM. For the same compound, the TGI (SK-OV-3 ovarian) was greater than 100 µM, the TGI (M14 melanoma) was greater than 100 µM and the TGI (HL-60(TB) leukemia) was greater than 100 µM. The TGI (MDA-N) was greater than 100 µM.

For `O=C(c1c(Cl)cc(Cl)cc1Cl)N(Cc1cccnc1)C(=S)N(Cc1cccnc1)C(=O)c1c(Cl)cc(Cl)cc1Cl`, the TGI (UACC-257 melanoma) was 22.8 µM, the TGI (SF-268 CNS) was 27.8 µM and the TGI (RPMI-8226 leukemia) was greater than 100 µM. For the same compound, the TGI (DU-145 prostate) was 17.2 µM, the TGI (NCI-H226 lung) was 45.1 µM and the TGI (U251 CNS) was 27.3 µM. The TGI (SW-620 colon) was greater than 100 µM, the TGI (786-0 renal) was 10.5 µM and the TGI (MDA-MB-231 breast) was 40.9 µM. The TGI (SK-MEL-5 melanoma) was 26.4 µM, the TGI (ACHN renal) was 41.1 µM and the TGI (OVCAR-5 ovarian) was 40.8 µM. It also gave a TGI (MOLT-4 leukemia) greater than 100 µM, a TGI (NCI/ADR-RES ovarian) of 34.3 µM and a TGI (T-47D breast) of 41.4 µM. The TGI (EKVX NSCLC) was 35.3 µM, the TGI (SF-295 CNS) was 43.2 µM and the TGI (CAKI-1 renal) was 19.8 µM. The TGI (COLO 205 colon) was 21.9 µM, the TGI (LOX IMVI melanoma) was 15.1 µM and the TGI (SK-MEL-28 melanoma) was 47.9 µM. It also gave a TGI (CCRF-CEM leukemia) greater than 100 µM, a TGI (HCT-116 colon) of 11.1 µM and a TGI (UACC-62 melanoma) of 34.2 µM. It also gave a TGI (SK-MEL-2 melanoma) of 36 µM, a TGI (MALME-3M melanoma) of 42.4 µM and a TGI (HCT-15 colon) of 11.2 µM. The TGI (BT-549 breast) was 9.59 µM, the TGI (NCI-H23 lung) was 23.5 µM and the TGI (SF-539 CNS) was 28.4 µM. It also gave a TGI (SNB-75 CNS) of 14.2 µM, a TGI (HOP-62 NSCLC) of 20.3 µM and a TGI (SN12C renal) of 20.5 µM. For the same compound, the TGI (MCF7 breast) was 15.8 µM, the TGI (MDA-MB-435) was 26.5 µM and the TGI (HOP-92 NSCLC) was 10.6 µM. It also gave a TGI (PC-3 prostate) of 24 µM, a TGI (OVCAR-3 ovarian) of 13.9 µM and a TGI (HCC-2998 colon) of 7.4 µM. It also gave a TGI (UO-31 renal) of 19.4 µM, a TGI (A498 renal) of 51.6 µM and a TGI (OVCAR-4 ovarian) of 5.25 µM. For the same compound, the TGI (TK-10 renal) was 11.1 µM, the TGI (KM12 colon) was 10.3 µM and the TGI (NCI-H522 lung) was 25.6 µM. For the same compound, the TGI (SNB-19 CNS) was 52.4 µM, the TGI (A549 NSCLC) was greater than 100 µM and the TGI (NCI-H460 lung) was 32.9 µM. It also gave a TGI (HS 578T breast) of 58.4 µM, a TGI (SR leukemia) greater than 100 µM and a TGI (K-562 leukemia) greater than 100 µM. For the same compound, the TGI (OVCAR-8 ovarian) was 16.5 µM, the TGI (HT29 colon) was 13.2 µM and the TGI (SK-OV-3 ovarian) was 77 µM. It also gave a TGI (M14 melanoma) of 26.5 µM, a TGI (HL-60(TB) leukemia) of 64.7 µM and a TGI (MDA-N) of 5.2 µM.
